A short description of series [1]: Inhibition of FGF.
The nature of series [2]: Lipophilicity, Log D of compound at pH 7.4. The conditions noted are these: buffer. The format is physicochemical.
Series [3] can be described thus: Inhibition of p38.
Series [4] can be described thus: Inhibition of JNK.
Series [5] in a line: Half life in Han Wistar rat at 5 umol/kg, po. The format is ADME, organism-based. The conditions noted are these: in vivo.
Series [6] is described as follows: Aqueous solubility of compound at pH 7.4. The format is physicochemical.
Series [7] deals with Proto-oncogene tyrosine-protein kinase Src (Homo sapiens, UniProt P12931). Description: Inhibition of Src.
In series [8] the target is T1, Tyrosine-protein kinase JAK3 (Homo sapiens, UniProt P52333).
T1 sequence (P52333 whole entry): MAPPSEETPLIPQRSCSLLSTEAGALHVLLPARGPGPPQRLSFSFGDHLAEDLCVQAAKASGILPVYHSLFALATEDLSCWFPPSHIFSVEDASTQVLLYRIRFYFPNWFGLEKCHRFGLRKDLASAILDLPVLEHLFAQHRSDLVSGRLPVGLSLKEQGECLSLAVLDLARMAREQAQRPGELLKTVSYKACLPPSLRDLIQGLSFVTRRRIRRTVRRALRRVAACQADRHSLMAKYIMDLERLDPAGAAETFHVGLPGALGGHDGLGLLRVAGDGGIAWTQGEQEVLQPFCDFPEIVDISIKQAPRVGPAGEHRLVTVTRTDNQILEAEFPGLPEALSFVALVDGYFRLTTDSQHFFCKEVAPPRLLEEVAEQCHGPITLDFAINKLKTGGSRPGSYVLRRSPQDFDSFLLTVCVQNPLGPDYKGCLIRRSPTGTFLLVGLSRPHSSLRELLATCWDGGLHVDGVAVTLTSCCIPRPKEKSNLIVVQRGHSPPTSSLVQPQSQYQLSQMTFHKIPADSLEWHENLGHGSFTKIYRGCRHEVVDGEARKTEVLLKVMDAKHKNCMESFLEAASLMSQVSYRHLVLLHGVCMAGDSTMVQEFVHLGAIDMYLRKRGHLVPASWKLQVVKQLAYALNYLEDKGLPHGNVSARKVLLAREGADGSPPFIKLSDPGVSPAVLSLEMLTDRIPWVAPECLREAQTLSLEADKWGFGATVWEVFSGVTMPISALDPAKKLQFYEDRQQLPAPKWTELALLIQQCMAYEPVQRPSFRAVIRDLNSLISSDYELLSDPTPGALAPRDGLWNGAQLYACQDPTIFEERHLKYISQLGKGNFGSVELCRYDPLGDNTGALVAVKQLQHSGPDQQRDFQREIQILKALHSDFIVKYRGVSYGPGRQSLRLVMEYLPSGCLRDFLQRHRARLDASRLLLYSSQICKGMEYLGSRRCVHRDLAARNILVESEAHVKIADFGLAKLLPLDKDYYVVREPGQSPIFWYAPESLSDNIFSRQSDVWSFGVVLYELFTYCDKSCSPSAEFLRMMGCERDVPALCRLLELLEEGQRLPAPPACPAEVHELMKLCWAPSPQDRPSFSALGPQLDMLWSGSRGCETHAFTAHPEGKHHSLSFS
Description: Inhibition of JAK3.

Series [9] in a line: Volume of distribution at steady state in Han Wistar rat at 5 umol/kg, po or 0.5 umol/kg, iv. The conditions noted are these: in vivo, read-out: Vdss. The format is ADME, organism-based.
Series [10] in a line: Bioavailability in Han Wistar rat at 5 umol/kg, po. The series is classed as ADME, organism-based. Particulars: in vivo.
Series [11] can be described thus: AUC in Han Wistar rat at 5 umol/kg, po. The format is ADME, organism-based. Particulars: plasma.
Series [12] can be described thus: Inhibition of PKA.
Series [13] relates to Plasma. Kind of series: Protein binding in Han Wistar rat plasma assessed as free drug. The series is classed as ADME, cell-free.
Series [14] deals with Serine/threonine-protein kinase PLK1 (Homo sapiens, UniProt P53350). Description: Inhibition of PLK.
Series [15] deals with Cyclin-dependent kinase 2 (Homo sapiens, UniProt P24941). Kind of series: Inhibition of CDK2.
In series [16] the target is Focal adhesion kinase 1 (Homo sapiens, UniProt Q05397). Description: Inhibition of FAK.

Each structure is given as a SMILES string. In brackets after ≈: the same amount, converted by molar mass.

Broadly, the IC50 is the concentration at which inhibition is half-maximal. High values mean weaker potency, low ones greater potency. By logD is commonly meant the decadic logarithm of the distribution of all forms, ionised or not, between an organic phase and buffer at a given pH. A lower logD goes with lower lipophilicity. What is called half-life is the time in which the quantity being followed falls by half. Low values mean fast loss, high ones slow loss. A word on the solubility: it is the dissolved amount per volume that the medium holds. Higher therefore signals much dissolved substance. The bioavailability is dose-corrected exposure relative to a reference, in per cent. The low end stands for little systemic uptake, the high end for much systemic uptake. In general, AUC refers to the area under the concentration-time curve, a measure of exposure.

Chain of Focal adhesion kinase 1 (Q05397 whole entry): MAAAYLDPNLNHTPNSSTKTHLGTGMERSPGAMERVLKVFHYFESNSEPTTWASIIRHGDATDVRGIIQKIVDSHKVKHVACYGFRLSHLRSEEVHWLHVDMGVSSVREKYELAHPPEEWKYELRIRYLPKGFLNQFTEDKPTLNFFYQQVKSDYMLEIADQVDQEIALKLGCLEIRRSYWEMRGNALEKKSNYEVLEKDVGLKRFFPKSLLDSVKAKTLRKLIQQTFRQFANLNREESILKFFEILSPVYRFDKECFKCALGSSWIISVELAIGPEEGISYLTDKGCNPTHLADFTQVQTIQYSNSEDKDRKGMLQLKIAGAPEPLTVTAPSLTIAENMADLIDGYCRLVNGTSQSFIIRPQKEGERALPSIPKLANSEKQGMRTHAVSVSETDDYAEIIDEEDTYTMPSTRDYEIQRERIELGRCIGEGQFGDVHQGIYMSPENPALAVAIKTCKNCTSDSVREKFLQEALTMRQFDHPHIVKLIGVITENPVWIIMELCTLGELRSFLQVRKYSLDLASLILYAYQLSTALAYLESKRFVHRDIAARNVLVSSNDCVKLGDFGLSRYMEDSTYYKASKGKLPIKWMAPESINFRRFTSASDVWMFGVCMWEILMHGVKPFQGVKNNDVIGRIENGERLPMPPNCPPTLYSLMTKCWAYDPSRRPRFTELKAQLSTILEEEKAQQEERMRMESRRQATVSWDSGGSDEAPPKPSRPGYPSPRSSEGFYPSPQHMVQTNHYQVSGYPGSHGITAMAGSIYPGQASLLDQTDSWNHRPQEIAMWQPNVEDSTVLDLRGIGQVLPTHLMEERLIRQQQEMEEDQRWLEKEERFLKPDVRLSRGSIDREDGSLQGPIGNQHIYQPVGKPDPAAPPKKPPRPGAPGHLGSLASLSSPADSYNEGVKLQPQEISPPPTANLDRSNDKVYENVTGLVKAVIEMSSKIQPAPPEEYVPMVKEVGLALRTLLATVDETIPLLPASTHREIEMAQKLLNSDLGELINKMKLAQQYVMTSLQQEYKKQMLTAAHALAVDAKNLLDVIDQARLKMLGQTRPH
Chain of Serine/threonine-protein kinase PLK1 (P53350 whole entry): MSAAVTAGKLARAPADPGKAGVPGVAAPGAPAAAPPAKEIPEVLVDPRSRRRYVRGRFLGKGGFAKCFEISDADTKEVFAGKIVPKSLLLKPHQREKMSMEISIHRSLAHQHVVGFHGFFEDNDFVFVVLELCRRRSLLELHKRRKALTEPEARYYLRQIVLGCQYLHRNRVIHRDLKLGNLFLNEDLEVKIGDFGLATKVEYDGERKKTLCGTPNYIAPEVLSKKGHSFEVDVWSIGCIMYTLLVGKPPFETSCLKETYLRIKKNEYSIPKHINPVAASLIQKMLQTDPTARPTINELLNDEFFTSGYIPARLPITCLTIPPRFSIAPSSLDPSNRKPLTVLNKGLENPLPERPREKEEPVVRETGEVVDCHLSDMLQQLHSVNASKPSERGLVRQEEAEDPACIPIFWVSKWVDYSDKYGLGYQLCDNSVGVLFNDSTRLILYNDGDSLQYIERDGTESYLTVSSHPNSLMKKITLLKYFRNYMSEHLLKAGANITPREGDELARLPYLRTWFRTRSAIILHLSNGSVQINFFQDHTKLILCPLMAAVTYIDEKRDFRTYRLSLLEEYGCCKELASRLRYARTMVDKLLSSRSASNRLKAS
Chain of Proto-oncogene tyrosine-protein kinase Src (P12931 2-536 limits assumed): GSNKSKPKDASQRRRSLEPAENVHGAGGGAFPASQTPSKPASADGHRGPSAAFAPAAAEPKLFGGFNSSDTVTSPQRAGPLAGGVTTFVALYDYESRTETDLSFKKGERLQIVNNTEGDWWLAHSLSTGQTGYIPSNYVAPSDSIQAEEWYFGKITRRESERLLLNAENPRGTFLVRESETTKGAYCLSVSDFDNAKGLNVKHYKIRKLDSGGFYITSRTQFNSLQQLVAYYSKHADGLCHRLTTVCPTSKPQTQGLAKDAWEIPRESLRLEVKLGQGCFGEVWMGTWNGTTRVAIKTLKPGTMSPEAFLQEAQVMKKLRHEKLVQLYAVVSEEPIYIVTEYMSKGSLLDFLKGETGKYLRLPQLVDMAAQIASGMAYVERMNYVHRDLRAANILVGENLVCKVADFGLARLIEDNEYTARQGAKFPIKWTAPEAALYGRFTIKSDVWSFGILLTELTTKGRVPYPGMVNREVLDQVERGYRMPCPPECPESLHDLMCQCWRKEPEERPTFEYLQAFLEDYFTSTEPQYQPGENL

In the case of `CS(=O)(=O)c1cccc(Nc2nccc(Nc3c(Cl)ccc4c3OCO4)n2)c1`, the IC50 is more than 30 µM in series [1]; 27.1 µM in [3]; more than 30 µM in series [4]; less than 0.1 µM in series [7]; 20.5 µM in series [8]; more than 30 µM in [12]. In addition, the IC50 is more than 30 µM in [14], 17.6 µM in series [15] and 19.7 µM in series [16]. In series [2], the logD is 3.13. For the same molecule, the half-life in series [5] was 5.3 h. The solubility in [6] turned out to be 30 µM (≈ 12.6 µg/mL). Moreover, the Vd in series [9] is 0.5 L/kg. In series [10], the bioavailability came to 30%. In series [11], this molecule yielded an AUC of 4 µM·h. For the same molecule, the Fu in series [13] amounted to 0.74%.

The values are drawn from ChEMBL document CHEMBL1145633, “Inhibitors of the tyrosine kinase EphB4. Part 1: Structure-based design and optimization of a series of 2,4-bis-anilinopyrimidines” (Bioorg Med Chem Lett, 2008).
